# In ChEMBL document CHEMBL1151106, “Chemical studies on mexican plants used in traditional medicine, VI. Additional new 4-phenylcoumarins from Exostema caribaeum” (1988):
# Calls of active or inactive are those of the source. No cut-off for these calls is given here.
# Tested on: Candida albicans
# Experiment: Antifungal activity against Candida albicans
# Format: functional
Structure (SMILES),Activity,MIC
COc1cc(O[C@@H]2O[C@H](CO)[C@@H](O)[C@H](O)[C@H]2O)c2c(-c3ccc(O)c(O)c3)cc(=O)oc2c1,Active,–
COc1cc2c3c(cc(=O)oc3c1)-c1cc(O)c(OC)cc1O2,inactive,–
COc1ccc(-c2cc(=O)oc3cc(OC)cc(O[C@@H]4O[C@H](CO)[C@H](O)[C@H](O)[C@H]4O)c23)cc1,Active,–
COc1cc(O)c2c(-c3ccc(OC)c(O)c3)cc(=O)oc2c1,Active,–
COc1cc(O)c2c(-c3ccc(O)c(O)c3)cc(=O)oc2c1,inactive,–
COc1cc(O[C@@H]2O[C@H](COC(C)=O)[C@H](O)[C@H](O)[C@H]2O)c2c(-c3ccc(O)c(O)c3)cc(=O)oc2c1,Active,–
COc1cc(O[C@@H]2O[C@H](CO)[C@H](O)[C@H](O)[C@H]2O)c2c(-c3ccc(O)c(O)c3)cc(=O)oc2c1,–,12.5 µg/mL
